Measurements published in patent US8084481B2, “Substituted arylimidazolone and triazolone as inhibitors of vasopressin receptors” (Bayer Pharma Aktiengesellschaft, priority 2006, dated 2011).

Experiments:
[1] = target: T1, human V1a receptor (Homo sapiens, UniProt P37288); test: Cellular in vitro test for determination of the vasopressin receptor activity (aequorin luminescence, CHO cells), human V1a; type: cell-based; conditions: cell line transfected with the human V1a receptor, antagonism of [Arg8]-vasopressin, read-out: IC50 hV1a
T1 construct: expressed in transfected cells; host or cells: CHO K1 (ATCC), constitutively expressing a modified aequorin
Description: (§1) B-1. Cellular In Vitro Test for Determination of the Vasopressin Receptor Activity
(§2) The identification of agonists and antagonists of the V1a- and V2-vasopressin receptors in man and the rat and the quantification of the activity of the compounds according to the invention are effected by means of recombinant cell lines. These cells are originally derived from the ovarian epithelial cells of the hamster (Chinese Hamster Ovary, CHO K1, ATCC: American Type Culture Collection, Manassas, Va. 20108, USA). The test cell lines constitutively express a modified form of the calcium-sensitive photoprotein aequorin, which after reconstitution with the cofactor coelenterazine emits light on an increase in the free calcium concentrations [Rizzuto R, Simpson A W, Brini M, Pozzan T, Nature 358, 325-327 (1992)]. In addition, the cells are stably transfected with human or rat V1a- or V2 receptors. In the case of the Gs-coupled V2 receptors, the cells are stably transfected with a further gene which codes for the promiscuous Gα16-Protein [Amatruda T T, Steele D A, Slepak V Z, Simon M I, Proceedings of the National Academy of Science USA 88, 5587-5591 (1991)]. The resulting vasopressin receptor test cells react to stimulation of the recombinantly expressed vasopressin receptors with an intracellular release of calcium ions, which can be quantified by the resulting aequorin luminescence with a suitable luminometer [Milligan G, Marshall F, Rees S, Trends in Pharmacological Sciences 17, 235-237 (1996)].
(§3) On the day before the text, the cells are plated out in culture medium (DMEM, 10% FCS, 2 mM glutamine, 10 mM HEPES) in 384-well microtitre plates and kept in a cell incubator (96% atmospheric humidity, 5% v/v CO2, 37° C.). On the test day, the culture medium is replaced by a Tyrode solution (140 mM NaCl, 5 mM KCl, 1 mM MgCl2, 2 mM CaCl2, 20 mM glucose, 20 mM HEPES) which in addition contains the cofactor coelenterazine (50 μM), and the microtitre plate is then incubated for a further 3-4 hours. The test substances in various concentrations are placed beforehand in the wells of the microtitre plate for 10 to 20 minutes, before the agonist [Arg^8]-vasopressin is added and the resulting light signal immediately measured in the luminometer. The IC50 values are calculated by means of the computer program GraphPad PRISM (Version 3.02).

[2] = target: T2, human V2 receptor (Homo sapiens, UniProt P30518); test: Cellular in vitro test for determination of the vasopressin receptor activity (aequorin luminescence, CHO cells), human V2; type: cell-based; conditions: cell line transfected with the human V2 receptor, antagonism of [Arg8]-vasopressin, read-out: IC50 hV2
T2 construct: expressed in transfected cells; host or cells: CHO K1 (ATCC), constitutively expressing a modified aequorin and stably co-transfected with promiscuous G-alpha-16
Description: as §1, §2, §3

T1 sequence (P37288 whole entry): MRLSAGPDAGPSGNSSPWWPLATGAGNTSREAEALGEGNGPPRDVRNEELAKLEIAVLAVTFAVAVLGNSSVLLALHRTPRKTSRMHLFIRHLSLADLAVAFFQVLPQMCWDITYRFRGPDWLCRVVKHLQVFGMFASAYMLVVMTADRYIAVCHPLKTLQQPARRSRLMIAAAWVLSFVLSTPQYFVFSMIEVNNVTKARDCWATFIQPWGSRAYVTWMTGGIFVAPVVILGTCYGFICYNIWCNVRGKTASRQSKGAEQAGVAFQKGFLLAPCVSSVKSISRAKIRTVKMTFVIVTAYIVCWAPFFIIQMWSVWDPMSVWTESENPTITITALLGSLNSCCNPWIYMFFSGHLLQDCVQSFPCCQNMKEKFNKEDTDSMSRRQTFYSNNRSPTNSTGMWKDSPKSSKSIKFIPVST
T2 sequence (P30518 whole entry): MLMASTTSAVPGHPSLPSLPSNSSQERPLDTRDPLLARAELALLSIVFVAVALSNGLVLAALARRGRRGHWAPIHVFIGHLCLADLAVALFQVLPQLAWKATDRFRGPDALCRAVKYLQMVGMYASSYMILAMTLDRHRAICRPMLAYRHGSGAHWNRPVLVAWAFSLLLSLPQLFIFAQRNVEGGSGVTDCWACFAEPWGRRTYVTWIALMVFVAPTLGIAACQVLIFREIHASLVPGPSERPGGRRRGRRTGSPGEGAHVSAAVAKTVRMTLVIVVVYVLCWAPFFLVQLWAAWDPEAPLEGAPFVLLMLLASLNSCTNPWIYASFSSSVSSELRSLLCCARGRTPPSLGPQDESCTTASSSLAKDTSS

IC50 [1]: 4 nM
IC50 [2]: 11 nM
SMILES: O=C(Cn1nc(-c2ccc(Cl)cc2)n(CC(O)C(F)(F)F)c1=O)NC(C(=O)N1CCOCC1)c1cccc(C(F)(F)F)c1 (centres unmarked) [Example 511, 2-[3-(4-chlorophenyl)-5-oxo-4-(3,3,3-trifluoro-2-hydroxypropyl)-4,5-dihydro-1H-1,2,4-triazol-1-yl]-N-{2-morpholin-4-yl-2-oxo-1-[3-(trifluoromethyl)phenyl]ethyl}-acetamide]
